Test results: patent US4327100A, “2-(Alkoxy-phenyl)-imidazo(4,5-b)pyridines and salts thereof” (Boehringer Ingelheim GmbH, priority 1979, dated 1982)

Tests used:
Format in all cases: in vivo
anesthetized cat = assay: Effect on blood pressure and positive inotropic activity in the anesthetized cat; settings: 2.0 mg/kg i.v., average value, at least 3 cats
Procedure: 1. Determination of the effect on blood pressure and of the positive inotropic activity in the anesthetized cat
The test was performed on cats which were anesthetized with pentobarbital sodium (40 mg/kg i.p.). The animals breathed spontaneously. The arterial blood pressure was measured in the aorta abdominalis by a Statham pressure transducer (P 23 Dc). The positive inotropic effect was determined by measuring the pressure in the left ventricle by means of a catheter tip manometer (Millar PC 360 A). The contractility parameter (dp/dtmax) was registered by means of an analog differentiating circuit.
The test compound was injected into the vena femoralis. Physiological sodium chloride solution or polydiol 200 was used as solvent. Each substance was tested in at least 3 cats, dose 2 mg/kg i.v.

white mice = assay: Acute toxicity in white mice after oral administration; settings: single oral dose 300 mg/kg, observation time 14 days
Procedure: (§1) The acute toxicity was determined in white mice after oral administration of a single dose of 300 mg/kg (observation time: 14 days).

[1] = as above; settings: mouse, in vivo, single oral dose 300 mg/kg, observation time 14 days
Procedure: as §1

| Compound | Change in blood pressure, second value of the printed pair (diastolic, not labelled in the patent) (anesthetized cat) | animals died (white mice) | LD50 at 336 h [1] |
| --- | --- | --- | --- |
| COc1ccc(-c2nc3ncccc3[nH]2)c(OCC[S+]([O-])c2ccc([N+](=O)[O-])cc2)c1 (centres unmarked) [E, 2-{2-[2-(4-Nitrophenylsulfinyl)-ethoxy]-4-methoxyphenyl}-imidazo[4,5-b]pyridine] | 32 mmHg |  |  |
| COc1ccc(-c2nc3ncccc3[nH]2)c(OCC[S+]([O-])c2ccc(C)cc2)c1 (centres unmarked) [C, 2-{2-[2-(4-Methylphenylsulfinyl)-ethoxy]-4-methoxyphenyl}-imidazo[4,5-b]pyridine] | 45 mmHg | 0 out of 6 | > 300 mg/kg |
| COc1ccc(-c2nc3ncccc3[nH]2)c(OCC[S+]([O-])c2ccc(Cl)cc2)c1 (centres unmarked) [B, 2-{2-[2-(4-Chlorophenylsulfinyl)-ethoxy]-4-methoxyphenyl}-imidazo-[4,5-b]pyridine] | 42 mmHg | 0 out of 6 | > 300 mg/kg |
| COc1ccc(-c2nc3ncccc3[nH]2)c(OCC[S+]([O-])c2ccccc2)c1 (centres unmarked) [A, 2-[2-(2-Phenylsulfinyl-ethoxy)-4-methoxyphenyl]imidazo[4,5-b]pyridine] | 20 mmHg |  |  |
| COc1ccc(-c2nc3ncccc3[nH]2)c(OCC[S+]([O-])c2cc(OC)c(OC)cc2C)c1 (centres unmarked) [D, 2-{2-[2-(2-Methyl-4,5-dimethoxyphenylsulfinyl)-ethoxy]-4-methoxyphenyl}-imidazo[4,5-b]pyridine] | 5 mmHg | 0 out of 6 | > 300 mg/kg |
